Test results reported in patent publication US7846469B2, “Reversible inhibition of sperm receptor synthesis for contraception” (The Penn State Research Foundation, priority 2006, dated 2010).
Values joined by “and” are separate entries in the source; they are usually repeats but may differ in a detail not shown here. Equal values may be shown once.

Tests used:
Pekin Ducks = assay: Dose-response feeding study in Pekin ducks: egg production and fertility; type: in vivo, duck
Text: FIG. 3 depicts the fertility of laid eggs obtained from Pekin Ducks fed varying doses of nicarbazin.
(§1) [Images were taken at 20× magnification with DAPI fluorescent stain.]
(§2) Our first study determined the dose-response relationship for the effect of nicarbazin in reducing egg production and/or hatchability in ducks.
Since all hens in this experiment were artificially inseminated with sperm from untreated drakes, the effects on subsequent fertility were considered to be due entirely to the effect of nicarbazin on the female ducks. […] Further, upon the withdrawal of nicarbazin-treated feed, even the hens receiving the highest dose of nicarbazin returned to normal egg production and fertility within 10 days.

[1] = system: sperm attaching to the oocyte; assay: Sperm count on oocyte membrane of eggs from fed, inseminated ducks; type: in vivo, duck; settings: membranes of eggs from nicarbazin-treated ducks
Text: as §1
Since there appeared to be a decrease in the amount of ZPC (the primary sperm receptor) present in the duck oocyte membranes, we reasoned that the lack of fertility in any laid eggs should be due to a decline in sperm attaching to the oocyte. FIG. 5 illustrates a pair of sample membranes from both control and nicarbazin treated ducks. Consistent with previous data from our lab (e.g., Barbato et al., 1998) 228±15 sperm/mm2 of oocyte membrane were found in eggs from control ducks, whereas there were 0±15 sperm/mm2 counted on the membranes from nicarbazin-treated ducks.

[2] = system: inner perivitelline membrane (85% ZPC protein); assay: Electron microscopy of inner perivitelline membrane of mature follicle from fed laying hens; type: in vivo, chicken; settings: 250 ppm nicarbazin treated feed
Text: FIG. 6 is an electron micrograph of a mature follicle from control (C) and nicarbazin treated (T) hens.
As a follow-up experiment, we fed a group of 6 laying hens the 250 ppm nicarbazin treated feed, in an attempt to reduce, but not eliminate, ZPC synthesis. Egg membranes were collected from laid eggs and the most mature follicle dissected from both treated and control hens. The membranes were fixed with osmium tetroxide, sectioned via microtome and viewed with electron microscopy.
This micrograph provides direct, visual confirmation of the previously presented data: that is, that oral nicarbazin dosages reduces the ZP3 content of the oocyte membrane.

broiler-breeder hens = settings: cited from earlier work
fruit fly = assay: Nicarbazin in fruit fly media; type: in vivo; settings: ethanol carrier
Description: According to the invention, nicarbazin specifically influences the expression of the zona pellucida 3 gene and protein in vertebrates. It is expected that other homologs of the ZP3 gene will also be negatively affected by nicarbazine. For example, there is an insect homolog of ZP3 that is a structural component of the wing vein. Nicarbazin interferes with the expression of the insect homolog in the same manner as the vertebrate Gene.
In a quick experiment, 3-5% nicarbazin preparation was added to the media (food) in fruit fly vials using ethanol as a carrier (since fruit flies are attracted to ethanol).

[3] = DNC concentrations in blood and laid eggs of ducks fed nicarbazin; type: in vivo, duck; settings: 31.25-500 ppm in feed
Text: as §2

chicken ZPC = assay: Western blot for chicken ZPC in isolated hen granulosa cells treated with nicarbazin; type: cell-based
Description: FIG. 1 is a Western blot of chicken ZPC proteins.
In a preliminary effort to support this hypothesis, we isolated granulosa cells from primary follicles of a laying hen, and suspended them in a simple cell culture media (1 ml medium (M)199-HEPES supplemented with Hank salts (Gibco-BRL) plus 1 ml Dulbecco modified Eagle medium (DMEM) containing 5% FBS). […] The cells were then disrupted with a sonicator and proteins precipitated and heat solubilized per Barbato et al. (1998). Proteins were concentrated, separated via gel electrophoresis and western blot performed with antibodies to chicken ZPC.

rat ZPC mRNA = assay: Quantitative rtPCR of ZPC (ZP3) mRNA copy number in rat ovarian tissue; type: in vivo
Text: (§3) In an attempt to increase nicarbazin absorption in a mammalian species we paired nicarbazin with a typical pharmaceutical carrier, 5% propylene glycol (PGC). A 500 ppm dose was fed to 8 adult, female rats for a 7-day period, at which time the rats were killed and the ovaries removed and placed in RNAlater (to preserve protein, RNA and DNA—4 control rats were also sacrificed). Ovarian proteins and mRNA were extracted via standard laboratory protocols. FIG. 7 illustrates the results of a western blot for ZPC, using a murine monoclonal antibody (which cross-reacts with rat ZPC).
Upon finding a reduction in ZPC-immunoreactive band intensity from ovarian samples obtained from treated animals, we designed PCR primers to identify mRNA for rat ZPC. By applying the quantitative rtPCR technique we were able to estimate the number of copies of the ZPC mRNA that were present in the ovarian tissue samples.

ZPC = assay: Western blot of ZPC in oocyte (perivitelline) membrane of laid eggs from fed ducks; type: in vivo, duck
Text: Drug feeding began in Week 2; making Week 1 and internal control.
A subsample of eggs were collected during each week of the experiment, in order to dissect, extract and identify the ZPC in the oocyte membrane using and anti-ZPC antibody and western blotting technique. FIG. 4 illustrates that at the 500 ppm dose of nicarbazin, ZPC was undetectable after the 1st week of treatment, and remained absent thereafter.

rat ZPC = assay: Western blot for ZPC in rat ovarian tissue after 1 week of nicarbazin feeding; type: in vivo; settings: 500 ppm with 5% propylene glycol, band at approx. 50 kDa
Text: FIG. 7 is a Western Blot (using mouse ZPC monoclonal antibody) of rat ovarian tissue after 1 week of nicarbazin feeding. [mZPC-mab 1:2000; similar results obtained with dilution of 1:5000 and 1:10000.
as §3

mice = assay: Direct feeding experiment with mating pairs of mice; type: in vivo, mouse
Description: The indirect biochemical evidence in the previous section led us to attempt a direct feeding experiment with mice. In this case, mice were fed a 0.5% nicarbazin diet (containing 5% propylene glycol). In addition, 7.5% peanut butter was added to the diet to increase palatability. Ten mating pairs of mice were given access to the diet for 4-5 hrs over a […].

FDRL rats = settings: high dose (300 mg/kg bw per day phenylurea, 100 mg/kg bw per day pyrimidone), F2a and F3a litters; cited from earlier work

Substance: equimolar complex of 1,3-N,N′-bis(4-nitrophenyl)urea and 4,6-dimethyl-2(1H)-pyrimidone [nicarbazin]
- fertility of eggs (Pekin Ducks; 500 ppm nicarbazin ducks, inseminated with 200 million sperm, of 5 eggs set): 20%
- egg production (Pekin Ducks; ducks fed 31.25-500 ppm, FIG. 2): decline in egg production
- time to return to normal egg production and fertility after withdrawal (Pekin Ducks; highest dose, after withdrawal of nicarbazin-treated feed): ≤ 10 days
- fertility of eggs laid by treated hens (Pekin Ducks; oral doses 31.25-500 ppm, hens inseminated with sperm from untreated drakes, FIG. 3): profound effect
- sperm on oocyte membrane [1]: 0±15 sperm/mm2
- width of the inner perivitelline membrane (electron micrograph) [2]: reduction in width
- time to return of normal hatchability and egg production after removal of nicarbazin from feed (broiler-breeder hens; after removal from the feed): 7 to 10 days
- egg production (broiler-breeder hens; higher levels (ca. 700 ppm) in feed): eliminated egg production entirely
- hatchability of fertile eggs (broiler-breeder hens; lower levels of nicarbazin (<125 ppm) in feed): significant reduction in hatchability
- fly phenotype (fruit fly; 3% nicarbazin preparation in media): deformed wings and could not fly
- hatching of fruit fly eggs (fruit fly; 5% nicarbazin preparation in media): did not hatch
- DNC concentrations in blood and laid eggs versus fed nicarbazin dose [3]: linear dose-concentration relationship
- cell viability (chicken ZPC; 100 mM nicarbazin, granulosa cells): all cells were dead
- immunoreactive ZPC (western blot) (chicken ZPC; granulosa cells from primary follicles of a laying hen, lanes 4-6 (1, 10, 100 mM nicarbazin)): absence of immunoreactive ZPC
- ZP3 mRNA copy number, mean of triplicate estimate per rat (rat ZPC mRNA; individual rats fed nicarbazin 500 ppm for 1 week, ovarian tissue): 0.47 and 0.95 (2×) and 0.75 and 0.50 and 0.85 and 0.77
- ZP3 mRNA copy number, overall mean (rat ZPC mRNA; rats fed nicarbazin for 1 week, ovarian tissue, control overall mean 1.00, P = 0.03): 0.71
- reduction in copy number of the ZPC gene (rat ZPC mRNA; rats fed nicarbazin versus control): 30%
- ZPC in oocyte membrane (western blot) (ZPC; 250 ppm dose, over time): clear decline in the intensity of ZPC
- ZPC in oocyte membrane (western blot) (ZPC; 500 ppm dose, after the 1st week of treatment): undetectable
- ZPC immunoreactive band intensity (western blot) (rat ZPC): reduction in intensity
- conception rate (mice; mice, 0.5% nicarbazin diet with 5% propylene glycol and 7.5% peanut butter, ten mating pairs, non-treated 90%): 10%
- pups per litter (mice; mice, 0.5% nicarbazin diet, non-treated averaging 6 pups per litter): 0.2 pups/litter
- reversibility after removal of treated feed (mice; previously treated mice mated over the next month): conceived normal litters
- teratogenic effects in pups (mice; pups of treated mice): no sign of teratogenic effects
- litter size (FDRL rats): slightly fewer pups
